Measurements as given in ChEMBL document CHEMBL1138384, “Rational design of a nonpeptide general chemical scaffold for reversible inhibition of PDZ domain interactions” (Bioorg Med Chem Lett, 2007).
Activity calls are given as the source filed them. The rule behind the calls is not given here.

Legend:
HCT-116 = assay: Effect on HCT116 cells expressing wild-type PTEN assessed as 2-fold increase in PKB activity at 50 uM; assay type: functional, cell-based; settings: Homo sapiens
HEK293 = assay: Inhibition of receptor recycling in HEK293 cells assessed as reduction of adrenergic beta-2 receptor expression; assay type: functional, cell-based; settings: Homo sapiens
[1] = target: Cystic fibrosis transmembrane conductance regulator (Homo sapiens) (UniProt P13569); assay: Inhibition of […]-mediated chloride transport in human bronchial epithelial cells by voltage clamp method; assay type: cell-based; settings: Epithelial cell
Chain of Cystic fibrosis transmembrane conductance regulator (Homo sapiens) (P13569 whole entry, looked up): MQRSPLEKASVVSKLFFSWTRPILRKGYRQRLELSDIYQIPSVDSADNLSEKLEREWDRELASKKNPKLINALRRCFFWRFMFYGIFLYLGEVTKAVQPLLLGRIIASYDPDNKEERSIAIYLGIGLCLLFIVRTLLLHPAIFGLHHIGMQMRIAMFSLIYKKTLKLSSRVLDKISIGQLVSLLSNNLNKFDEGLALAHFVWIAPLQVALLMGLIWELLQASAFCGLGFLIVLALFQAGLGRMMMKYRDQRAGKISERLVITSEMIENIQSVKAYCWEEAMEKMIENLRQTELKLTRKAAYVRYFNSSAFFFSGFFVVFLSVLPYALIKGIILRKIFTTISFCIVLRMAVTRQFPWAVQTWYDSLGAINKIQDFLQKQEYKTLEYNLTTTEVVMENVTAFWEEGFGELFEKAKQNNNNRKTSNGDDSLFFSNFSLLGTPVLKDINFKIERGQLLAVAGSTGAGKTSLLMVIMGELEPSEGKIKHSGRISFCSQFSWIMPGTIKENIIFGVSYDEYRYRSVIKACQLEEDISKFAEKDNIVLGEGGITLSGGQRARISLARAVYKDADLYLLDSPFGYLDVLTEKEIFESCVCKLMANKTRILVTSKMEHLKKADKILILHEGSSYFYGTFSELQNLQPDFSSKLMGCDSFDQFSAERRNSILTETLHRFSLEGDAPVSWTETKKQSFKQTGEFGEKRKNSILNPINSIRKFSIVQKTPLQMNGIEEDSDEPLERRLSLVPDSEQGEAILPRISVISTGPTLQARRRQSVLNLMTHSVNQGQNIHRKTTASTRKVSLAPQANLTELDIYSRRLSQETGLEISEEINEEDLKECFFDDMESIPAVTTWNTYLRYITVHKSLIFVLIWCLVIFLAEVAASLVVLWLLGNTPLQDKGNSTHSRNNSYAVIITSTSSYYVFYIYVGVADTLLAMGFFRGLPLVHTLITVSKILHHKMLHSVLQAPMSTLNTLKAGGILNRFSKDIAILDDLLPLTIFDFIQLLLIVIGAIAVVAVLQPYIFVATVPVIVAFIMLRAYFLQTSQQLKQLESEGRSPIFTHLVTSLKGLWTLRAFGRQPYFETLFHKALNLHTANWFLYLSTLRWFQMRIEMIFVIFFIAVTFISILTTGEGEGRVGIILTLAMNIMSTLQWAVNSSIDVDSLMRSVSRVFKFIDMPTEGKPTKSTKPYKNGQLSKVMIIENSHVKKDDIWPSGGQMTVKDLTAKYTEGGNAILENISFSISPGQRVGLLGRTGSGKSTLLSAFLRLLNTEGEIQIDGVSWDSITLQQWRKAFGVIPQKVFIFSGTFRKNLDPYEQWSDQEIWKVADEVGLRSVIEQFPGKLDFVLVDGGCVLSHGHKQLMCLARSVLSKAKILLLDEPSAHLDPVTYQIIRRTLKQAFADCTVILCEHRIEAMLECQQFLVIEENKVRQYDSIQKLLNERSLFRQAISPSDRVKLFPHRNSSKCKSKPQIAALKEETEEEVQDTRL

[2] = Solubility in water; assay type: physicochemical
Homo sapiens [3] = species on record: Homo sapiens; assay: Displacement of peptide probe from MAGI3 PDZ2 domain by fluorescent polarization method
Homo sapiens [4] = species on record: Homo sapiens; assay: Inhibition of MAGI3-PTEN interaction assessed as activation of PKB at 5 uM
Homo sapiens [5] = species on record: Homo sapiens; assay: Inhibition of MAGI3-PTEN interaction at 10 uM

Row | Activity [1] | solubility [2] [mM] | Activity (Homo sapiens [3]) | Activity (Homo sapiens [4]) | inhibition (Homo sapiens [5]) [%] | SMILES | Activity (HCT-116) | Activity (HEK293)
1 | Dose-dependent effect | > 30 | Active |  |  | CCCCC(O)c1cc2cc(C)c(C(=O)[O-])cc2n1CCc1ccccc1.[Na+] (configuration not stated) | Active | Dose-dependent effect
2 |  |  |  | Active | 50 | CCCCCc1c(CO)c2cc(C)c(C(=O)O)cc2n1CCc1ccccc1 |  | 
